Two compounds from patent US20150190416A1, “FILAGGRIN PRODUCTION PROMOTER, THERAPEUTIC AGENT FOR DISEASES ASSOCIATED WITH REDUCTION IN PRODUCTION OF FILAGGRIN, AND METHOD FOR SCREENING FOR SAID THERAPEUTIC AGENT” (KYOTO UNIVERSITY, priority 2012, published 2015) can be followed below.

Holding throughout (format): cell-based, human
In one test the test system is FLG monomer. Put plainly: FLG monomer in three-dimensional cultured skin, Western blotting (Example 11). The settings on record: 1 μM, immunoblotting. How it is done:
In this example, the expression-increasing effect of Compound 1 on FLG monomer was examined by using a three-dimensional cultured skin. The expression of the FLG monomer was confirmed by Western blotting.
In this example, the same procedures as those in the steps 1) to 3) of Example 10 were conducted. It should be noted that as a medicament, D) Comparative Compound 3 (M344) was used, as well as A) Compound 1 and C) Comparative Compound 2 of Example 10.
4) The three-dimensional cultured skin obtained in the same manner as in the steps 1) to 3) of Example 10 was recovered, and was cut into pieces with scissors. Then, 100 μl of Lysis buffer (0.1 M Tris-HCl (pH 9.0), 6 M Urea, 1% 2-mercapto-ethanol, 1% SDS, 1 mM EDTA, and Protease inhibitor cocktail) were added and the cells were homogenized with an electrically powered pestle. The homogenized cells were centrifuged at 15,000 rpm at 4° C. for 20 minutes, and the supernatant was recovered to be used as a sample for measurement. The total protein in the sample was quantified by using a protein assay reagent (Bio-Rad Laboratories, Inc.) according to the manufacturer's protocol. The protein was adjusted so that each sample contained 15 μg protein/lane, and the samples were subjected to electrophoresis by SDS-PAGE (Invitrogen, NuPAE Novex Bis-Tris mini Gel 4 to 12%) under the conditions of 100 V and 2 hours. As a marker, Precision Plus Protein Standards (Bio-Rad Laboratories, Inc.) was used. The proteins separated by the electrophoresis were transferred to a PVDF membrane (blotting), and the expression of FLG monomer was confirmed by using an anti-FLG antibody (Filaggrin AKH1, Santa Crus). At that time, Anti-mouse IgG-HRP (GE Healthcare) was used as a secondary antibody, and Amersham ECL Plus Western Blotting Detection Reagents (GE Healthcare) was used as a color developer.
Background: In western blotting, separated proteins are transferred to a membrane and probed.

In test [1] the test system is GPR142. The test can be described thus: Blocking effect by GPR142 RNAi in NHEK cells (Examples 5 and 6). As to conditions: GPR142 siRNA, compound 10 nM, 1 day. How it is done:
In this example, it was confirmed that the expression-inducing effects of Compound 1 on GPR142 mRNA and FLG mRNA in NHEK cells were blocked by GPR142 RNAi.
1) 5×10^4 cells/well of NHEK cells (Invitrogen) were plated on a 24-well plate. Then, 500 μl of a culture medium containing a medium for proliferating normal human epidermal keratinocytes (HuMedia-KG2, KURABO INDUSTRIES LTD.) supplemented with hEGF (0.1 ng/ml), insulin (10 μg/ml), hydrocortisone (0.5 μg/ml), gentamycin (50 μg/ml), amphotericin B (50 ng/ml), and bovine brain pituitary extract (BPE) (0.4%, v/v) were added to the plate, and the cells were cultured under the conditions of 37° C. and 5% CO2.
2) After culture under the conditions of the step 1) for 1 day, the medium was exchanged for the culture medium of the step 1) to which CaCl2 (1.2 mM in terms of Ca) was further added as Ca, and culture was conducted under the conditions of 37° C. and 5% CO2. After culture for 1 day, the medium was exchanged for the same culture medium containing Ca, and culture was further conducted for 1 day.
3) The NHEK cells of the step 2) were transfected with 50 nM of siRNA per well of the 24-well plate by using a transfection reagent, Lipofectamine RNA Max (Invitrogen) according to the manufacturer's protocol.
The sequences of the used three kinds of GPR142 siRNAs and the sequences of the used control siRNAs (all the siRNAs are manufactured by Invitrogen) are described below.
4) After culture for 1 day after the transfection with siRNA in the step 3), the medium was exchanged for the culture medium of the step 1) to which a DMSO solution of Compound 1 was added at 10 nM per well, and culture was further conducted for 1 day. As a control, a solvent only (vehicle) was added.
5) An extraction reagent (TRIzol™, Invitrogen) was used, and according to the manufacturer's protocol, total RNA was extracted from each of cells treated with the medicament. A reverse transcriptase reagent (Prime Script™, Takara) was used, and according to the manufacturer's protocol, cDNA was prepared from the total RNA. Next, real-time PCR was conducted by using the following primers and SYBR™ Premix Ex Taq (Takara) with a CFX96 real-time PCR instrument according to the manufacturer's protocol, and the amounts of GPR142 mRNA and FLG mRNA expression were measured. The result of measurement is shown as a GAPDH ratio.
In this example, it was confirmed that the expression-inducing effects of Compound 2 or 3 on GPR142 mRNA and FLG mRNA in NHEK cells were blocked by GPR142 RNAi.
NHEK cells were transfected in the same manner as in Example 5 except that, in the steps 1) to 3) of Example 5, two kinds of GPR142 siRNAs and two kinds of control siRNAs, i.e., GPR142-1 (#HSS139493) and GPR142-3 (#HSS179846) and Control-1 (LOW GC, #129350-200), and Control-3 (HIGH GC, #129350-400) were used as GPR142 siRNAs and control siRNAs, respectively. After culture for 1 day after the transfection was conducted in the same manner as in the step 4) of Example 5, the medium was exchanged for the culture medium to which each of a DMSO solution of Compound 1, a DMSO solution of Compound 2, or a methanol solution of Compound 3 was added at 10 nM per well, and culture was further conducted for 1 day. As a control, a solvent only (vehicle) was added. Regarding each of cells treated with the medicament, real-time PCR was conducted to measure the amounts of GPR142 mRNA and FLG mRNA in the same manner as in the step 5) of Example 5. The results of the measurement are shown as a GAPDH ratio.

For test [2], the system named is GPR142. The test can be described thus: Action on adenylate cyclase activity (cAMP) in GPR142-overexpressing HEK293T cells (Examples 8 and 9). The settings on record: GPR142-overexpressing HEK293T cells, 1,000 nM, forskolin 10 μM, IBMX 1 mM, 20 minutes. How it is done:
In this example, the cAMP production-suppressing effect of Compound 1 was confirmed.
1) 6×10^4 cells/well of HEK293T cells were plated on a collagen-coated 24-well plate, a culture medium containing DMEM medium (Invitrogen) supplemented with penicillin (50 μg/ml), streptomycin (50 μg/ml), and fetal bovine serum (FBS) (10%, v/v) was added to the plate, and the cells were cultured under the conditions of 37° C. and 5% CO2.
2) A GPR142PCXN mammalian expression vector was prepared in the same manner as in the step 2) of Example 7.
3) After culture for 1 day under the conditions of the step 1), HEK293T cells were transfected with 0.2 μg of the GPR142PCXN mammalian expression vector per well by using a transfection reagent Fugene™ HD (Promega Corporation) according to the manufacturer's protocol. As a control, cells transfected only with the PCXN mammalian expression vector were used.
4) After culture for 1 day after the transfection described above, 1 mM of isobutylmethylxanthine (IBMX), which was a cAMP phosphodiesterase inhibitory substance, was added to HEK293T cells, and thereafter, the cells were cultured for 10 minutes at 37° C.
5) Next, the medium was exchanged for the culture medium to which 0.1 nM to 1000 nM of a DMSO solution of Compound 1, 10 μM of forskolin, and 1 mM of IBMX per well were added, and the cells were further cultured for 20 minutes at 37° C. As a control, a solvent (vehicle), 10 μM of forskolin, and 1 mM of IBMX were added.
6) The cells cultured in the step 5) were lysed by 0.1 mol/L of HCl. The cAMP concentration within the cells was measured by using Cyclic AMP EIA Kit (Cayman Chemical Company) according to the manufacturer's protocol. The result is shown as the ratio (%) of the cAMP concentration in the cells treated with Compound 1 with respect to the cAMP concentration in the control example defined as 100%.
In this example, the cAMP production-suppressing effect of Compound 2 or 3 was confirmed.
HEK293T cells were cultured in the same manner as in the steps 1) to 4) of Example 8. Next, the cells were cultured in the same manner as in the step 5) of Example 8 except that, in the step 5) of Example 8, each of a methanol solution of Compound 3, a DMSO solution of Compound 2, and a DMSO solution of Comparative Compound 2 was used at 1,000 nM per well instead of Compound 1. The cAMP concentration in the cultured cells was measured in the same manner as in the step 6) of Example 8.

As for `CN(C)c1ccc(C(=O)NCCCCCCC(=O)NO)cc1` [Comparative Compound 3, 4-Dimethylamino-N-(6-hydroxycarbamoylhexyl)benzamide, reference compound], the “production of FLG monomer” value in the test with FLG monomer was “clear production of FLG monomer was not observed”.

As to `COC(=O)CNC(Cc1ccccc1)C(=O)Nc1cc(-c2ccncc2)nn1C.Cl.Cl` (stereo not drawn) [Compound 3, Methyl 2-(1-(1-methyl-3-(pyridine-4-yl)-1H-pyrazol-5-ylamino)-1-oxo-3-phenylpropan-2-ylamino)acetate dihydrochloride], in the test with GPR142 [1], the “induction of FLG mRNA expression: dependence on GPR142” value is reported as “mediated by GPR142”. In addition, the “decrease of cAMP production” value in the test with GPR142 [2] was “about 24%”.
